“Also recorded” adds a separate entry of the source.

Assay [1] deals with HL-60R cells. The assay is described as follows: Growth and apoptosis of HL-60R cells overexpressing M6P/IGF2R. The assay is classed as cell-based, human. The note with it: 1 μM RA; HL-60R cells transfected with M6P/IGF2R cDNA. On the procedure: FIG. 9 is a graph showing the effect of RA treatment on growth (number of viable cells) of HL-60R cells overexpressing M6P/IGF2R protein and HL-60R controls. Open circles, vector control cells without RA treatment; closed circles, vector control cells with 1 μM RA treatment; open squares, overexpressing cells without RA treatment; closed squares overexpressing cells with 1 μM RA treatment.
We examined the M6P/IGF2R-mediated effects of RA in the absence of nuclear RA receptors, by using human cell line HL-60R, which lacks functional nuclear RA receptors. This cell line expresses low levels of M6P/IGF2R protein. We transfected HL-60R cells with a plasmid encoding human M6P/IGF2R, so they overexpressed M6P/IGF2R. Then we assessed their response to RA. […] Apoptosis was assayed using FITC-labeled annexin V staining and flow cytometry.

Assay [2] has as its system neonatal rat cardiac myocytes. The assay is described as follows: Growth, morphology and apoptosis of cardiac myocytes. The assay is classed as cell-based. The procedure:
Cultured neonatal rat cardiac myocytes were known to express high levels of the M6P/IGF2R protein. The effect of RA on the growth of normal, neonatal rat cardiac myocytes was examined.
Cell Isolation and Culture For the photoaffinity labeling experiments, cardiac myocytes were isolated from 1-day-old neonatal Sprague-Dawley rats, using the Neonatal Cardiomyocyte Isolation System (Worthington). The isolated cell were cultured on Petri dishes with culture medium (F-10 nutrient mixture/10% horse serum/5% fetal bovine serum/50 μg/ml streptomycin/50 units/ml penicillin G). Cells were used for experiments after 2-6 days of culture.

Assay [3] relates to neonatal rat cardiac myocytes. Nature of the assay: Cellular acid phosphatase activity in cultured cardiac myocytes. The assay is classed as cell-based. Particulars: RA 2 μM; various times. On the procedure:
FIG. 6. is a graph summarizing data on the effect of RA on cellular acid phosphatase activity. Cultured neonatal rat cardiac myocytes were treated with 2 μM RA at 37° C. for various time, washed and harvested. Cellular proteins were then solubilized by sonication and acid phosphatase activity was assayed using a Diagnostics Acid Phosphatase kit (Sigma). Dotted line represents control cells. Solid line represents RA-treated cells. Bars represent standard error or the mean (n=4).
The primary functions of the Man-6-P/IGF-II receptor are to mediate endocytosis of extracellular M6P-containing proteins (e.g. lysosomal enzymes) and IGF-II and to sort newly synthesized lysosomal enzymes. Therefore, an important question raised by the direct interaction of RA with M6P/IGF2R is whether RA influences these functions of the receptor. To answer this question, we examined the effect of RA on endocytosis of exogenous β-glucuronidase and ^125I-IGF-II and intracellular activity of acid phosphatase in cultured neonatal rat cardiac myocytes, which were known to express high levels of the M6P/IGF-II receptor (Nissley et al., 1993, Mol. Reprod. Dev. 35:408-413). […] This indicated an increased sorting of lysosomal enzymes) (FIGS. 4-6). […] These effects of RA were not altered in the presence of a protein synthesis inhibitor (0.5 mM cycloheximide) and were not observed in the receptor-negative P388D1 cells. […]

For assay [4], the target named is T1, M6P/IGF2R (300 kDa protein) (Rattus norvegicus, UniProt G3V824).
T1 construct: about 100 μg of proteins of membrane preparations or serum; from tissue; host or cells: membrane preparations of cultured neonatal Sprague-Dawley rat cardiac myocytes
Nature of the assay: [3H]RA photoaffinity labeling of the 300 kDa protein. The assay is classed as binding. The note with it: for Inhibition of [3H]RA photolabeling/binding to M6P/IGF2R by nonradioactive competitor: 25- to 50-fold molar excess (50 μM) competitor added before photolysis. The procedure: Photoaffinity Labeling Photoaffinity labeling was performed essentially according to the methods described in Bernstein et al., 1995, Proc. Natl. Acad. Sci. USA 92:654-658. […] After the ethanol has been evaporated with nitrogen, about 100 μg of proteins of membrane preparations or serum [serum proteins were first concentrated using a Biomax-100K Centrifugal Filter Device (Millipore)] were then added to each tube. The final volume was adjusted to 100 μl with 50 mM Tris buffer (pH 7.4) containing protease inhibitors (5 mM EDTA, 5 mM EGTA, 0.1 mM phenylmethylsulfonyl fluoride, 0.05% NaN3, 20 μg/ml aprotinin, 10 μg/ml benzamidine and 12.5 μg/ml chymostatin) and 50 μM butylated hydroxytoluene (a radical scavenger, used to minimize the non-specific labeling) for a final concentration of 1 μM labeled retinoic acid. The samples were incubated at room temperature with agitation for 1 hour in the dark. The samples were exposed to an intense 365-nm UV light source (Model B 100AP, UPland, CA) for 7 min. […] To remove the non-covalently bound ligands, the photolabeled samples were extracted with chloroform/methanol (2:1), or washed once by centrifugation for membrane samples only).
Fluorography The resultant protein pellets were dissolved in SDS sample buffer containing 5% β-mercapto-ethanol and heated at 100° C. for 5 min. These samples were then run on 7% polyacrylamide gels (30:0.2, acrylamide/bisacrylamide ratio), using conventional SDS/PAGE techniques. After electrophoresis, the gels were stained with Coomassie blue, soaked in Amplifier (Amersham, Life Science) for 30 minutes, dried by a vacuum gel dryer and then exposed to Hyperfilm-TM X-ray films (Amersham, Life Science) at […] for 1-3 days.

For assay [5], the target named is T2, M6P/IGF-II receptor (Rattus norvegicus, UniProt G3V824).
T2 construct: cultured neonatal rat cardiac myocytes, which were known to express high levels of the M6P/IGF-II receptor; endogenous in cells; host or cells: primary neonatal rat cardiac myocytes
The assay is described as follows: Endocytosis of exogenous β-glucuronidase in cultured cardiac myocytes. The assay is classed as cell-based. On the procedure: FIG. 4 is a histogram summarizing data on the effect of RA on the endocytosis of exogenous β-glucuronidase. Myocytes were incubated for 2 h at 37°0 C. with 1 ml of MEM containing 10,000 units of human β-glucuronidase, and with or without 5 mM mannose 6-phosphate, in the presence or absence of 2 μM RA. Following the incubation, the internalized human β-glucuronidase was determined as described in the Methods.
The primary functions of the Man-6-P/IGF-II receptor are to mediate endocytosis of extracellular M6P-containing proteins (e.g. lysosomal enzymes) and IGF-II and to sort newly synthesized lysosomal enzymes. Therefore, an important question raised by the direct interaction of RA with M6P/IGF2R is whether RA influences these functions of the receptor. To answer this question, we examined the effect of RA on endocytosis of exogenous β-glucuronidase and ^125I-IGF-II and intracellular activity of acid phosphatase in cultured neonatal rat cardiac myocytes, which were known to express high levels of the M6P/IGF-II receptor (Nissley et al., 1993, Mol. Reprod. Dev. 35:408-413). […] This indicated an increased sorting of lysosomal enzymes) (FIGS. 4-6). […]
Endocytosis of extracellular β-glucuronidase was determined as described by Kyle et al., 1988, J. Biol. Chem. 263:16230-16235. […]

T1 sequence (G3V824 36-2481): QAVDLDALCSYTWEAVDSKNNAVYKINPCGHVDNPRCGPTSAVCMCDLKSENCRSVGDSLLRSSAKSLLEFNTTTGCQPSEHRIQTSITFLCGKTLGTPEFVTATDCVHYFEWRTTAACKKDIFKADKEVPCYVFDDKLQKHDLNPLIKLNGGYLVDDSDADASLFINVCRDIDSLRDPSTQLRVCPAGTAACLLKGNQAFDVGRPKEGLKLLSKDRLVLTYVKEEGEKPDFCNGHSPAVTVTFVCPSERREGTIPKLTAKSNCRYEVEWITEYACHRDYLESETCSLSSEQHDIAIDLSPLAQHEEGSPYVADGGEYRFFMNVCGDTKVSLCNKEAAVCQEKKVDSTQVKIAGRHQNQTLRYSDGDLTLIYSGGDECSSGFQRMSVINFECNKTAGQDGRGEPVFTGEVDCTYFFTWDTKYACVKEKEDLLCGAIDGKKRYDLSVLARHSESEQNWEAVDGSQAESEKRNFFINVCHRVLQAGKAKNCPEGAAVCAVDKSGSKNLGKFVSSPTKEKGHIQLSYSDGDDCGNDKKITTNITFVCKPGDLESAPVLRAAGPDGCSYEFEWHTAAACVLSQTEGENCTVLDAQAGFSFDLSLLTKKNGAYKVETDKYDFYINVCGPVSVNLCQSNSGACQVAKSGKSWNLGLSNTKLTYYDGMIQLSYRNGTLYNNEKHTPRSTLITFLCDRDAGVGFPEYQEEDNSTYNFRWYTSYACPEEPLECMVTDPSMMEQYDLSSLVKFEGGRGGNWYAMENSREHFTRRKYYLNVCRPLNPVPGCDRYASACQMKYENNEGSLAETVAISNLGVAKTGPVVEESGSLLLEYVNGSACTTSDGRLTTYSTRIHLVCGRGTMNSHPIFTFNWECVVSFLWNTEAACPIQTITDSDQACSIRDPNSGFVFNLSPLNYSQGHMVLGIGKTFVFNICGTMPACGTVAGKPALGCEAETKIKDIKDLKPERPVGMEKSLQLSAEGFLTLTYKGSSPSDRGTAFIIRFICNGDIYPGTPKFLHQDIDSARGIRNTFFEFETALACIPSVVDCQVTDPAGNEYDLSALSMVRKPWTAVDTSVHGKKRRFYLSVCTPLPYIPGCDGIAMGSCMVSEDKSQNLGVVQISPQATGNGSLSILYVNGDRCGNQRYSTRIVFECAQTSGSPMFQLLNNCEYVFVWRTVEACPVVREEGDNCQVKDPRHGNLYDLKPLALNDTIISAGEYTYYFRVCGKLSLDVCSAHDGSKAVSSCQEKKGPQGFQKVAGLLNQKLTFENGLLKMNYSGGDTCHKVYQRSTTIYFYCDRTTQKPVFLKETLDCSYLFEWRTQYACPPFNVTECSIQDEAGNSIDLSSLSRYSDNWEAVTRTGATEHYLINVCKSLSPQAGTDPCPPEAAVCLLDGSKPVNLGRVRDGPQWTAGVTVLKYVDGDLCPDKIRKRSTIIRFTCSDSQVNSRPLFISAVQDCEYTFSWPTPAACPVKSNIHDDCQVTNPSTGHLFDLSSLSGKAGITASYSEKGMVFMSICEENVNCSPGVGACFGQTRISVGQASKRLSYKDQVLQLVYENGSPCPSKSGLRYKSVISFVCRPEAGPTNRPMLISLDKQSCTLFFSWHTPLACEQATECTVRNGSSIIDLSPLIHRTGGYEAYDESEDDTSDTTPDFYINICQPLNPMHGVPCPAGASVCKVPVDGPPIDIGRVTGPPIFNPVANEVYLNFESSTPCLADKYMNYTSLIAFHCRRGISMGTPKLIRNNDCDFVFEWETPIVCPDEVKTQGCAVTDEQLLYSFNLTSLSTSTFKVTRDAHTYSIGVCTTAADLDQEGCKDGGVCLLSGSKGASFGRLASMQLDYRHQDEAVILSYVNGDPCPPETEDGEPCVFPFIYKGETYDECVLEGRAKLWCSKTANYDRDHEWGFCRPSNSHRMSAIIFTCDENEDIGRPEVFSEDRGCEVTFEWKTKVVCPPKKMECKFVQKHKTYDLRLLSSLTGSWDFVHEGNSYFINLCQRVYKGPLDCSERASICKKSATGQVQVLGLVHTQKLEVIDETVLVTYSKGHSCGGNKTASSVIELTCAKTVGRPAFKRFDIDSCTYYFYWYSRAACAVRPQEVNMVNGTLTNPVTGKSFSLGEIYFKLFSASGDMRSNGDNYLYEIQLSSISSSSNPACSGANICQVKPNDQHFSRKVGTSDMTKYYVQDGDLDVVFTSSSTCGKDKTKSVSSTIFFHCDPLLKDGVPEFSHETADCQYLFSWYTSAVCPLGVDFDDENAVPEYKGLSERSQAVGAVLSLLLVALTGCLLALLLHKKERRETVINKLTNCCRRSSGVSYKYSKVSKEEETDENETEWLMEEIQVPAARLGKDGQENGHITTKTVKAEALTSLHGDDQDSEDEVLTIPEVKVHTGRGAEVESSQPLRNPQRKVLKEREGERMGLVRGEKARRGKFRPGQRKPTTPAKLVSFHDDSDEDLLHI
T2 sequence (G3V824 36-2481): as above

On to `CC1=C(/C=C/C(C)=C/C=C/C(C)=C/C(=O)O)C(C)(C)CCC1` [RA, all-trans-retinoic acid], for which, in assay [1], the “Apoptosis (FITC-annexin V staining, flow cytometry)” value was “significant increase in apoptosis” and the Growth rate entry is “remarkable reduction in growth rate”. Besides, the “Cell morphology and growth” value in assay [2] (48 hours) is “marked alteration of cell morphology, and inhibition of growth”. Also, the “Apoptotic cells (Hoechst 33258 nuclear staining)” value in assay [2] (RA-treated cultures vs controls) is reported as “many more apoptotic cells”. Further, in assay [3], the “Cellular acid phosphatase activity” value is given as “induced a transient cellular accumulation of acid phosphatase”. The “Inhibition of [3H]RA photolabeling/binding to M6P/IGF2R by nonradioactive competitor” value in assay [4] is recorded as “the radiolabel at the 300 kDa protein was lost; also recorded: inhibited the binding”. The “Inhibition of [3H]RA photolabeling/binding to M6P/IGF2R by nonradioactive competitor” value in assay [4] (listed as all-trans-retinoic acid) is recorded as “abolished the labeling”. The “Photoaffinity labeling of protein by [3H]RA” value in assay [4] (incubation with [3H]RA followed by photolysis) was “labeling of a doublet protein at 300 kDa; also recorded: intensively photolabeled”. The “Effects of RA on endocytosis, IGF-II internalization and acid phosphatase with protein synthesis inhibitor” value in assay [5] (RA 2 μM plus 0.5 mM cycloheximide) was “not altered”. Moreover, the “M6P-inhibitable endocytosis of β-glucuronidase” value in assay [5] (RA 2 μM, 2 h at 37° C.) is recorded as “almost doubled”.

(Values after patent US6596500B1, “Binding of retinoids to M6P/IGF-II receptor” (The General Hospital Corporation, priority 1998, dated 2003).)
